Common to all, as to format: binding
Assay [1] has as its target T1, AGT-Ma (Homo sapiens, UniProt P21549, S218L).
T1 sequence (P21549 1-392 S218L): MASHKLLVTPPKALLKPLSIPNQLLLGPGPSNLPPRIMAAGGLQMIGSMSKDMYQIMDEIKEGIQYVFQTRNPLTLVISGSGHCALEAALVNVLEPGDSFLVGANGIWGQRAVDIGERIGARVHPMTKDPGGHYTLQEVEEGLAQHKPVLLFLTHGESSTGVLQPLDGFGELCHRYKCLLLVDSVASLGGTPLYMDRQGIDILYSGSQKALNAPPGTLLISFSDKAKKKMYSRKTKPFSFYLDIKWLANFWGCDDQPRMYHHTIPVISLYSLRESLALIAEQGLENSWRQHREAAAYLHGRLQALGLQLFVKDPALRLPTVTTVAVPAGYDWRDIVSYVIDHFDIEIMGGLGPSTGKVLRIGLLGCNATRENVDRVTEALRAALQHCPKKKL
As to the kind of experiment: CD signal at […] nm titration of apoenzyme.

The target in assay [2] is T2, AGT-Ma (Homo sapiens, UniProt P21549, S187F).
T2 sequence (P21549 1-392 S187F): T1 sequence (P21549 1-392 S218L) with S187F, L218S
As to the kind of experiment: intrinsic fluorescence.

For assay [3], the target named is T3, AGT-Ma (Homo sapiens, UniProt P21549, P319L).
T3 sequence (P21549 1-392 P319L): T1 sequence (P21549 1-392 S218L) with L218S, P319L
The assay is described as follows: quenching of intrinsic fluorescence of apoenzyme.

The target in assay [4] is T4, AGT-Mi (Homo sapiens, UniProt P21549, G161C/I340M/P11L).
T4 sequence (P21549 1-392 P11L/G161C/I340M): T1 sequence (P21549 1-392 S218L) with P11L, G161C, L218S, I340M
As to the kind of experiment: quenching of intrinsic fluorescence of apoenzyme.

Assay [5] concerns the target T5, AGT-Ma (Homo sapiens, UniProt P21549, D183N).
T5 sequence (P21549 1-392 D183N): T1 sequence (P21549 1-392 S218L) with D183N, L218S
The assay is described as follows: CD signal at […] nm titration of apoenzyme.

The target in assay [6] is T6, AGT-Mi (Homo sapiens, UniProt P21549, G161S/I340M/P11L).
T6 sequence (P21549 1-392 P11L/G161S/I340M): T1 sequence (P21549 1-392 S218L) with P11L, G161S, L218S, I340M
The assay is described as follows: quenching of intrinsic fluorescence of apoenzyme.

Assay [7] concerns the target T7, AGT-Mi (Homo sapiens, UniProt P21549, I340M/P11L/W108R).
T7 sequence (P21549 1-392 P11L/W108R/I340M): T1 sequence (P21549 1-392 S218L) with P11L, W108R, L218S, I340M
The assay is described as follows: CD signal at […] nm titration of apoenzyme.

What is called Kd is the free concentration of one partner at which half of the binding sites on the other are occupied at equilibrium, for simple one-to-one binding.

Substitutions are numbered along the chain they refer to.

Consider `Cc1ncc(COP(=O)(O)O)c(C=O)c1O` [PLP], for which the dissociation constant Kd was 24200 ± 100 nM on AGT-Ma [1]; less than 10 nM on AGT-Ma [2]; 190 ± 40 nM at AGT-Ma [3]; 560 ± 90 nM at AGT-Mi [4]; 2100 ± 100 nM at AGT-Ma [5]; 460 ± 70 nM at AGT-Mi [6]. This compound yielded a Kd on AGT-Mi [7] of 96000 ± 19000 nM.

Values taken from paper PMC3271384 (Molecular Genetics and Metabolism, 2012).
